Measured values published in ChEMBL document CHEMBL1201862, “PubChem BioAssay data set” (2004).
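Growth conditions: 96-well plates. Treatment: test compound, 48 hours, 5 concentrations. Analysis: linear interpolation between bracketing concentrations; unreached endpoints set to highest concentration. Here, GI50 denotes the concentration required for 50% inhibition of growth.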 Calls of active or inactive are those of the source. Cut-off read from the data, not from the text of the source: active = GI50 up to about 1.1 µM and inactive = higher.

Assays:
Assay in all cases: growth of human tumour cells (NCI), 48 h
ACHN = tested on: ACHN
CCRF-CEM = tested on: CCRF-CEM
HOP-92 = tested on: HOP-92
HT-29 = tested on: HT-29
KM12 = tested on: KM12
Malme-3M = tested on: Malme-3M
NCI-H460 = tested on: NCI-H460
OVCAR-3 = tested on: OVCAR-3
OVCAR-4 = tested on: OVCAR-4
SF-268 = tested on: SF-268
SF-539 = tested on: SF-539
SK-MEL-28 = tested on: SK-MEL-28
SK-MEL-5 = tested on: SK-MEL-5
SR = tested on: SR
U-251 = tested on: U-251
NCI-H522 = tested on: NCI-H522

Structure (SMILES)	GI50 (ACHN)	GI50 (CCRF-CEM)	GI50 (HOP-92)	GI50 (HT-29)	GI50 (KM12)	GI50 (Malme-3M)	GI50 (NCI-H460)	GI50 (OVCAR-3)	GI50 (OVCAR-4)	GI50 (SF-268)	GI50 (SF-539)	GI50 (SK-MEL-28)	GI50 (SK-MEL-5)	GI50 (SR)	GI50 (U-251)	GI50 (NCI-H522)
COC(=O)C1=C(c2cc(OC)c(OC)c(OC)c2)OC(c2cc(OC)c(OC)c(OC)c2)C1 (stereo not drawn)	20.2 µM (inactive)	24.1 µM (inactive)	10.7 µM (inactive)	24.3 µM (inactive)	17.7 µM (inactive)	31.3 µM (inactive)	28.4 µM (inactive)	22.1 µM (inactive)	12 µM (inactive)	46.2 µM (inactive)	34.4 µM (inactive)	53.1 µM (inactive)	16 µM (inactive)	18 µM (inactive)	20.5 µM (inactive)	
C[C@]12CC[C@H](O)CC1=CC[C@@H]1C2CC[C@]2(C)C(=O)NC(=O)CC12 (stereo partly drawn)	> 100 µM (inactive)	35.4 µM (inactive)	> 100 µM (inactive)	82.2 µM (inactive)	35.5 µM (inactive)	92.5 µM (inactive)	48.6 µM (inactive)	> 100 µM (inactive)	> 100 µM (inactive)	65.9 µM (inactive)	> 100 µM (inactive)	> 100 µM (inactive)	> 100 µM (inactive)	37.2 µM (inactive)	> 100 µM (inactive)	63 µM (inactive)
CCOC(=O)CCC(=O)C1c2cccc(O)c2C(=O)c2c(O)cc(C)cc21 (stereo not drawn)	0.993 µM (active)	0.519 µM (active)	1.46 µM (inactive)	2.47 µM (inactive)	0.245 µM (active)	1.34 µM (inactive)	0.342 µM (active)	0.533 µM (active)	0.569 µM (active)	0.542 µM (active)	0.226 µM (active)	1.48 µM (inactive)	0.676 µM (active)	0.743 µM (active)	0.252 µM (active)	0.392 µM (active)
COc1ccc(CCNCc2cccc(OC)c2OC)cc1OC	> 100 µM (inactive)	> 100 µM (inactive)	38.1 µM (inactive)	88.7 µM (inactive)	> 100 µM (inactive)	> 100 µM (inactive)	> 100 µM (inactive)	> 100 µM (inactive)	> 100 µM (inactive)	> 100 µM (inactive)		> 100 µM (inactive)	> 100 µM (inactive)			> 100 µM (inactive)
Cc1ccc(/C=N\NC2c3cc(Cl)ccc3Nc3nc(O)nc(C)c32)cc1 (stereo not drawn)	> 100 µM (inactive)	96.6 µM (inactive)	43.3 µM (inactive)	> 100 µM (inactive)	> 100 µM (inactive)	> 100 µM (inactive)	> 100 µM (inactive)	> 100 µM (inactive)		> 100 µM (inactive)	> 100 µM (inactive)	> 100 µM (inactive)		7.29 µM (inactive)	> 100 µM (inactive)	> 100 µM (inactive)
[O-][Cl+3]([O-])([O-])O.c1ccc(/N=c2\nc(N3CCOCC3)ss2)cc1	16.5 µM (inactive)	0.016 µM (active)	21.9 µM (inactive)	20 µM (inactive)	17.2 µM (inactive)	14.8 µM (inactive)	17.6 µM (inactive)		15.7 µM (inactive)	16 µM (inactive)	18.3 µM (inactive)	17.2 µM (inactive)	34.2 µM (inactive)	16.6 µM (inactive)	15.2 µM (inactive)	12.7 µM (inactive)
Cc1cccc2c1c1ccc3c(c1n2C)C(=O)C=CC3=O	7.73 µM (inactive)	0.468 µM (active)	2.08 µM (inactive)	3.47 µM (inactive)	13.2 µM (inactive)	4.33 µM (inactive)	17.3 µM (inactive)	2.05 µM (inactive)	11.8 µM (inactive)	14 µM (inactive)	4.56 µM (inactive)	9.71 µM (inactive)	14.8 µM (inactive)	1.43 µM (inactive)	10.3 µM (inactive)	1.51 µM (inactive)
CC1COC(C)(C)P(=O)(c2ccccc2)C1 (stereo not drawn)	> 100 µM (inactive)	> 100 µM (inactive)		> 100 µM (inactive)	> 100 µM (inactive)	> 100 µM (inactive)	> 100 µM (inactive)	> 100 µM (inactive)			> 100 µM (inactive)	> 100 µM (inactive)	> 100 µM (inactive)	> 100 µM (inactive)	> 100 µM (inactive)	> 100 µM (inactive)
CC1(C)C=C(N2CCN(C3=CC(C)(C)NC(C)(C)C3)CC2)CC(C)(C)N1	> 100 µM (inactive)	> 100 µM (inactive)	> 100 µM (inactive)	> 100 µM (inactive)	> 100 µM (inactive)		> 100 µM (inactive)	> 100 µM (inactive)	> 100 µM (inactive)	> 100 µM (inactive)	> 100 µM (inactive)	> 100 µM (inactive)	> 100 µM (inactive)	> 100 µM (inactive)	> 100 µM (inactive)	> 100 µM (inactive)
